“Also recorded” adds a separate entry of the source.
Assays:
Format in all cases: in vivo, rat
[1] = tested on: dynamin-related protein (DRP-1); experiment: Western immunoblotting, DRP-1; details: aged rats; oral 8-AG 5 mg/kg/day, 6 weeks
Protocol: Western immunoblotting: One half of each bladder preparation was homogenized using Lysing Matrix D in a FastPrep 24 instrument (MP Biomedicals, Solon, Ohio) in HBSS (5 mM KCl, 0.3 mM KH2PO4, 138 mM NaCl, 4 mM NaHO3, 0.3 mM Na2HCO3, 0.3 mM Na2HPO4, 5.6 mM glucose and 10 mM Hepes, pH 7.4) containing complete protease inhibitor cocktail (1 tablet/10 ml, ROCHE®, Indianapolis, Ind.)) and phosphatase inhibitor cocktail (SIGMA®, 1:100). After centrifugation (13000 rpm; 15 min at 4° C.), the membrane protein fraction was prepared by suspending the membrane pellets in lysis buffer containing 0.3 M NaCl, 50 mM Tris-HCl (pH 7.6) and 0.5% Triton X-100 and the same concentration of protease inhibitors as above. The suspensions were incubated on ice and centrifuged (13000 rpm; 15 min at 4° C.). The protein concentrations of the combined supernatants were determined using the PIERCE® BCA protein assay (THERMO SCIENTIFIC®, Rockford, Ill.). […] As a loading control, total protein per sample was determined using Bio-Rad® Stain Free SDS-PAGE gel technology. UV-activated protein fluorescence was imaged on a CHEMIDOC® MP (BIO-RAD®). […] The volume (intensity) of each protein species was determined and normalized to total protein using Image Lab software (BIO-RAD®).

aged rats = experiment: Von Frey testing of tactile sensitivity, aged rats
Protocol: Von Frey testing: Forty-eight hours after metabolism studies, tactile sensitivity was measured (once per week for the duration of the study) using von Frey nylon filaments applied to the suprapubic and plantar hindpaw (Stoelting Co., Wood Dale, Ill., USA). The median 50% withdrawal threshold (using up-down method) with positive responses are recorded as sharp retraction, licking/scratching, or vocalization.
Von Frey testing: Forty-eight h after the metabolism studies, tactile sensitivity was measured once per week using von Frey nylon filaments (Stoelting Co., Wood Dale, Ill., USA) applied to the suprapublic and plantar hindpaw. The median 50% withdrawal threshold (using an up-down method) with positive responses was recorded as sharp retraction, licking/scratching, or vocalization.
Von Frey Testing: Forty-eight hr after the metabolic cage studies, tactile sensitivity was measured once per week for the duration of the study using von Frey nylon filaments (Stoelting Co., Wood Dale, Ill., USA) applied to the suprapublic and plantar hindpaw. The withdrawal threshold (using up-down method) was determined, with positive responses defined as sharp retractions, licking/scratching, or vocalizations.

[2] = tested on: urethral smooth muscle and external urethral sphincter (striated muscle); experiment: Transmission electron microscopy of urethral smooth muscle and external urethral sphincter; details: aged rats; oral 8-AG 5 mg/kg/day, 6 weeks
Excerpt: Damage to the muscles or lack of hormonal stimulation are major contributing factors to urinary incontinence, which can lead to impaired bladder, emptying, urgency, and incontinence. The methods and materials used (such as for western immunoblotting and transmission electron microscopy) are the same as Example 1 with the tissues utilized for examination of muscle and mitochondrial morphology being the proximal urethral sphincter muscle and striated muscle of the external sphincter.
Transmission electron microscopy (TEM): The other half of each urinary bladder, proximal urethra, or external urethral sphincter from each group (young, aged, aged+8-AG treatment) was fixed in cold 2.5% glutaraldehyde in 0.01 M PBS. The specimens were rinsed in PBS, post-fixed in 1% osmium tetroxide with 1% potassium ferricyanide, rinsed in PBS, dehydrated through a graded series of ethanol and propylene oxide solutions, and embedded in POLY/BED® 812 (Luft formulations). Semi-thin (300 nm) sections were cut on a LEICA® Reichart Ultracut, stained with 0.5% Toluidine Blue in 1% sodium borate and examined under the light microscope. Ultrathin sections (65 nm) were stained with uranyl acetate as well as Reynold's lead citrate and examined on a JEOL 1400 transmission electron microscope with a side mount AMT 2k digital camera (Advanced Microscopy Techniques, Danvers, Mass.).

bladder blood flow = experiment: Laser Doppler flowmeter bladder blood flow, aged rats; details: oral 8-AG 5 mg/kg/day, 6 weeks, compared with young rats
Excerpt: Vascular Changes: Bladders that had been perfused transcardially with PBS buffer containing 20 nm yellow-green fluorescent beads (THERMO FISHER®, F8787) to highlight the vasculature were fixed then cleared by removing lipids and dissolving light-absorbing chromophores within the tissue. Volumetric data were acquired using a Caliber ID RS-G4 ribbon scanning confocal microscope (NIKON® Inc, Tokyo, Japan), which can acquire large-area images (uses a high nA (1.0) long working distance (8 mm) with low magnification (20×)). This affords the advantage of interrogating whole tissues in a three-dimensional environment without the need to section. Real-time blood perfusion (1 mm3 tissue) was accomplished using a BLF22D laser Doppler flowmeter (Transonic Systems, Inc) with a surface probe (TypeS-APLPHS) applied to the serosal surface of the bladder (apex and neck) wall using Doppler light shift from moving RBCs to analyze flow by the Bonner algorithm. This method gives robust, non-invasive microvascular flow signals in the bladder wall of anesthetized rats.

[3] = aged Fischer 344 rats, oral 8-AG 5 mg/kg/day, 6 weeks
[4] = aged Fisher 344 rats, 8-AG 5 mg kg/day via drinking water, 1 month
[5] = aged rats, intravesical 100 μM 8-AG plus 10 μM DEA-NONOate, daily infusion 3-6 weeks

## Nc1nc2[nH]c(N)nc2c(=O)[nH]1 [8-AG, 8-Aminoguanine]
[1]
  DRP-1 in bladder mucosa: reversed or restored to levels similar to the younger state; also recorded: restored changes similar to a younger state
Aged rats; [3]
  abdominal response to tactile mechanical stimuli: restored to a younger state
  somatic response to tactile mechanical stimuli: restored to a younger state
Aged rats; [4]
  abdominal tactile mechanical sensitivity: restored to a younger state; also recorded: reversed
  somatic tactile mechanical sensitivity: restored to a younger state; also recorded: reversed
Aged rats; [5]
  abdominal tactile mechanical sensitivity: increase in sensitivity; also recorded: improves
  somatic tactile mechanical sensitivity: increase in sensitivity; also recorded: improves
[2]
  external urethral sphincter (striated muscle) and mitochondrial morphology: restored to a younger state; also recorded: reversed to a younger state
  urethral smooth muscle and mitochondrial morphology: restored to a younger state; also recorded: reversed to a younger state
Bladder blood flow
  bladder blood flow (Doppler flowmeter): no significant difference; also recorded: reversed to a younger state

Reference: US20220054494A1, “METHODS FOR TREATING BLADDER AND URETHRA DYSFUNCTION AND DISEASE” (University of Pittsburgh - Of the Commonwealth System of …, priority 2019, published 2022)
